Series [1] can be described thus: Safety assessment in Phase III open-label multi-day study (adverse event reporting, daily liver enzymes, laboratory, vital signs). It counts as in vivo, human. Particulars: for Tolerability: up to 5 days. As to the method: A Phase III, open-label, prospective, multi-center, repeated dose, randomized, multi-day safety and efficacy study was conducted in […] subjects. The subjects were randomized as follows: 92 subjects to a q6 group (1 g of IV acetaminophen every 6 hours), 91 subjects to a q4 group (650 mg of IV acetaminophen every 4 hours), and 28 subjects to a standard of care control group, which could include oral acetaminophen, but no IV acetaminophen. Subjects who completed 5 days of study treatment included 63 in the q6 group, 59 in the q4 group and 26 in the control group. The primary endpoint was an assessment of safety using spontaneous adverse event reporting and daily liver enzymes. Efficacy evaluations were also performed.
All analyses of safety were conducted on the safety population.
Percentage of subjects withdrawn due to adverse event, percentage of subjects with adverse events (AEs) or serious adverse events (SAEs), and percentage of subjects with clinically meaningful changes in laboratory parameters were summarized.
All adverse events and serious adverse events were coded according to the Medical Dictionary for Regulatory Activities (MedDRA), Version 10.0. […] Liver function test abnormalities were graded using the Common Terminology Criteria for Adverse Events.
For each clinical laboratory parameter, descriptive statistics (n, mean, standard deviation, median, and range) were tabulated for baseline and final values. Change from baseline was tabulated for those subjects who had both baseline and final values. Liver function tests were also evaluated using values that were normalized to the upper limit of normal values for the local laboratory.
A shift table was prepared to present the shift in baseline clinical laboratory values that were clinically relevantly high or low at baseline and/or final measurement.
Descriptive statistics (n, mean, standard deviation, median, and range) were tabulated for changes in vital signs from baseline to final measurement.

The nature of series [2]: Subject Global Evaluations in Phase III open-label multi-day study of IV acetaminophen (4 point categorical rating scale). The note with it: for Subject Global Assessment, level of satisfaction with the study treatments, difference versus control group: any of the assessment points. Type of series: in vivo, human. As to the method: A Phase III, open-label, prospective, multi-center, repeated dose, randomized, multi-day safety and efficacy study was conducted in 213 subjects. The subjects were randomized as follows: 92 subjects to a q6 group (1 g of IV acetaminophen every 6 hours), 91 subjects to a q4 group (650 mg of IV acetaminophen every 4 hours), and 28 subjects to a standard of care control group, which could include oral acetaminophen, but no IV acetaminophen. […] The primary endpoint was an assessment of safety using spontaneous adverse event reporting and daily liver enzymes. Efficacy evaluations were also performed. All analyses of efficacy were conducted on the modified intent-to-treat population separately for the two indications (acute pain and fever). Subjects' Global Evaluations were summarized descriptively (n, mean, SD, median, minimum, and maximum) by treatment group for each study day and for overall assessments. Summary statistics were also provided for each site. Comparisons of efficacy endpoints between the following pairs of treatment groups were investigated using two-sided tests at the 5% level of significance: • IV acetaminophen 1 g versus IV acetaminophen 650 mg • IV acetaminophen 1 g versus standard of care treatment • IV acetaminophen 650 mg versus standard of care treatment A one-way analysis of variance (ANOVA) model with treatment group as the factor was used to test the treatment difference between these pairs. All groups were included in this analysis model. The p-values from the ANOVA model were presented along with the summary statistics. […] A one-way ANOVA model with treatment group as the factor was used to test the treatment difference between each treatment pair: • IV acetaminophen 1 g q6h versus IV acetaminophen 650 mg […] • IV acetaminophen 1 g q6h versus standard of care treatment (Control) • IV acetaminophen 650 mg […] versus standard of care treatment (Control) All endpoints were tested at the 0.05 significance level (two-sided).

Results on one compound are retold here after US10383834B2, “Reduced dose intravenous acetaminophen” (MALLINCKRODT HOSPITAL PRODUCTS IP LIMITED, priority 2007, dated 2019).

`CC(=O)Nc1ccc(O)cc1` [IV acetaminophen, acetaminophen]: the Tolerability result in series [1] (650 mg dose group (q4h)) and in series [1] (1000 mg dose group (q6h)) was “well tolerated” in each case. Moreover, the “Frequency of liver enzyme elevations seen in the treatment groups” value in series [1] (between treatment groups, includes alanine aminotransferase and aspartate aminotransferase) is “comparable”. The “Frequency of serious, severe, related, or overall treatment emergent adverse events (TEAEs), difference between the treatment groups” value in series [1] (q6 (1 g), q4 (650 mg) and standard of care control groups) was “no clinically relevant differences”. Besides, the “Subject Global Assessment, level of satisfaction with the side effects related to study treatments, mean rating” value is 2.5 in series [2] (650 mg q4h IV, day 4, scale 0-3, control 2.2, p=0.1162); 2.4 in series [2] (650 mg q4h IV, day 5 24 h lookback, scale 0=poor to 3=excellent, control 2.0, p=0.0167); 2.4 in series [2] (650 mg q4h IV, end of day 5 prior to discharge 24 h lookback, scale 0-3, control 2.0, p=0.0129); 2.5 in series [2] (1 g q6h IV, day 4, scale 0-3, control 2.2, p=0.0744); 2.4 in series [2] (1 g q6h IV, day 5 24 h lookback, scale 0-3, control 2.0, p=0.0062); 2.5 in series [2] (1 g q6h IV, end of day 5 prior to discharge 24 h lookback, scale 0-3, control 2.0, p=0.0073). In addition, the “Efficacy conclusion based upon the global satisfaction ratings” value in series [2] (650 mg q4h group) and in series [2] (1 g q6h group) was “efficacious” each time. In addition, the “Subject Global Assessment, level of satisfaction with the study treatments, difference versus control group” value in series [2] (650 mg q6h group (so in the source) versus standard of care control) and in series [2] (1 g q6h group versus standard of care control) was “no statistically significant differences” throughout. Besides, in series [2] (1 g q6h versus 650 mg q4h, daily 24 h lookback day 2 to end of day 5), the “Subject Global Assessments (study treatments or side effects), difference between the two active treatment groups” value is “no statistically significant differences”.
